# Reference: patent US5677329A, “Styryl-substituted monocyclic and bicyclic heteroaryl compounds which inhibit EGF receptor tyrosine kinase” (Rhone-Poulenc Rorer Pharmaceuticals, Inc., priority 1995, dated 1997)
# Entries after “also recorded” stand apart in the source; their conditions may differ. Read-outs that look alike come from different tables or passages of the source.
# Tests used:
# [1] = biological target: T1, EGFR (Homo sapiens, UniProt P00533); assay: Inhibition of EGFR autophosphorylation (anti-EGF-R immunoprecipitate from A431 cells, EGF stimulation); type: biochemical; details: for Relative inhibition of EGF receptor kinase, in words: comparison from Table V
# T1 construct: endogenous in cells; host or cells: A431 cells (detergent lysate, anti-EGF-R Ab 108 immunoprecipitate)
# Method: Inhibition of EGFR Autophosphorylation A431 cells were grown to confluence on human fibronectin coated tissue culture dishes. […] The reaction was stopped by adding hot electrophoresis sample buffer. […] "IC50," as used below, refers to the concentration of inhibitor (μM) at which the rate of autophosphorylation is halved, compared with media containing no inhibitor. […] The EGFR autophosphorylation inhibition was evaluated using the same procedure as described hereinbefore.
# [2] = biological target: PDGF receptor kinase; assay: Inhibition of autophosphorylation, procedure repeated with PDGF stimulation; type: biochemical; details: Table III
# [3] = system: DNA synthesis in PDGF-stimulated cells; assay: Inhibition of cell proliferation as measured by inhibition of DNA synthesis ([3H]thymidine incorporation), PDGF-stimulated cells; type: cell-based; details: Table IV; PDGF stimulation; [3H]thymidine incorporation halved
# Method: (§1) Inhibition of Cell Proliferation as Measured by Inhibition of DNA Synthesis Cells were seeded at 1×10^5 cells per well in 24-well Costar dishes pre-coated with human fibronectin (by incubating for 30 minutes at room temperature with 10 μg/0.5 ml/well). The cells were grown to confluence for 2 days. The medium was changed to DMEM containing […] for 36-48 hours and the cells were then incubated with PDGF, EGF (Toyobo, New York, N.Y.) (20 ng/ml) or serum (10% calf serum, FCS) and different concentrations of the inhibitory compounds. [^3 H]thymidine,(NEN, Boston, Mass.) was added 16-24 hours later at 0.5 μCi/ml for 2 hours. TCA precipitable material was quantitated by scintillation counting (C).
# [4] = system: DNA synthesis in serum (FCS)-stimulated cells; assay: Inhibition of cell proliferation as measured by inhibition of DNA synthesis ([3H]thymidine incorporation), serum (10% FCS)-stimulated cells; type: cell-based; details: 10% calf serum (FCS); for inhibition at 1 µM: read-out: Inhibition of [3H]thymidine incorporation, FCS (printed in the IC50 - FCS column); for IC50: Table IV, [3H]thymidine incorporation halved
# Method: as §1
# [5] = system: other protein kinases; details: cited from earlier work
# [6] = system: EGF receptor; details: membranes of A431 cells; cited from earlier work
# [7] = system: cyclic adenosine 3', 5'-monophosphate (cAMP)-dependent protein kinase; details: compared with EGF receptor autophosphorylation; cited from earlier work
# [8] = system: EGF receptor; assay: ATP dependence of EGF-receptor autophosphorylation (10-s assay); type: biochemical; details: 15° C., read-out: Km for ATP in EGFR autophosphorylation
# Method: EGF-Receptor Purification
# EGF-receptor purification is based on the procedure of Yarden and Schlessinger. A431 cells are grown in 80 cm^2 bottles to confluency (2×10^7 cells per bottle). The cells are washed twice with PBS and harvested with PBS containing 1.0 mmol EDTA (1 hour at 37° C.), and centrifuged at 600 g for 10 minutes. The cells are solubilized in 1 ml per 2×10^7 cells of cold solubilization buffer (50 mmol Hepes buffer, pH 7.6, 1% Triton X-100, 150 mmol NaCl, 5 mmol EGTA, 1 mmol PMSF, 50 μg/ml aprotinin, 25 mmol benzamidine, 5 μg/ml leupeptic, and 10 μg/ml soybean trypsin inhibitor) for 20 minutes at 4° C. After centrifugation at 100000 g for 30 minutes, the supernatant is loaded onto a WGA-agarose column (100 μl of packed resin per 2×10^7 cells) and shaken for 2 hours at 4° C. The unabsorbed material is removed and the resin washed twice with HTN buffer (50 mmol Hepes, pH 7.6, 0.1% Triton X-100, 150 mmol NaCl), twice with HTN buffer containing 1M NaCl, and twice with HTNG buffer (50 mmol Hepes, pH 7.6, 0.1% Triton X-100, 150 mmol NaCl, and 10% glycerol). The EGF receptor is eluted batchwise with HTNG buffer containing 0.5M N-acetyl-D-glucosamine (200 μl per 2×10^7 cells). The eluted material is stored in aliquots at -70° C. and diluted before use with TMTNG buffer (50 mmol Tris-Mes buffer, pH 7.6, 0.1% Triton X-100, 150 mmol NaCl, 10% glycerol).
# [9] = Table V, comparison with prior art compound C-1, same procedure as before, read-out: IC50, inhibition of EGFR autophosphorylation (Table V)
# [10] = Table III, EGF stimulation, autophosphorylation 2 min at 4° C., read-out: IC50 EGF
# T1 sequence (P00533 25-1210): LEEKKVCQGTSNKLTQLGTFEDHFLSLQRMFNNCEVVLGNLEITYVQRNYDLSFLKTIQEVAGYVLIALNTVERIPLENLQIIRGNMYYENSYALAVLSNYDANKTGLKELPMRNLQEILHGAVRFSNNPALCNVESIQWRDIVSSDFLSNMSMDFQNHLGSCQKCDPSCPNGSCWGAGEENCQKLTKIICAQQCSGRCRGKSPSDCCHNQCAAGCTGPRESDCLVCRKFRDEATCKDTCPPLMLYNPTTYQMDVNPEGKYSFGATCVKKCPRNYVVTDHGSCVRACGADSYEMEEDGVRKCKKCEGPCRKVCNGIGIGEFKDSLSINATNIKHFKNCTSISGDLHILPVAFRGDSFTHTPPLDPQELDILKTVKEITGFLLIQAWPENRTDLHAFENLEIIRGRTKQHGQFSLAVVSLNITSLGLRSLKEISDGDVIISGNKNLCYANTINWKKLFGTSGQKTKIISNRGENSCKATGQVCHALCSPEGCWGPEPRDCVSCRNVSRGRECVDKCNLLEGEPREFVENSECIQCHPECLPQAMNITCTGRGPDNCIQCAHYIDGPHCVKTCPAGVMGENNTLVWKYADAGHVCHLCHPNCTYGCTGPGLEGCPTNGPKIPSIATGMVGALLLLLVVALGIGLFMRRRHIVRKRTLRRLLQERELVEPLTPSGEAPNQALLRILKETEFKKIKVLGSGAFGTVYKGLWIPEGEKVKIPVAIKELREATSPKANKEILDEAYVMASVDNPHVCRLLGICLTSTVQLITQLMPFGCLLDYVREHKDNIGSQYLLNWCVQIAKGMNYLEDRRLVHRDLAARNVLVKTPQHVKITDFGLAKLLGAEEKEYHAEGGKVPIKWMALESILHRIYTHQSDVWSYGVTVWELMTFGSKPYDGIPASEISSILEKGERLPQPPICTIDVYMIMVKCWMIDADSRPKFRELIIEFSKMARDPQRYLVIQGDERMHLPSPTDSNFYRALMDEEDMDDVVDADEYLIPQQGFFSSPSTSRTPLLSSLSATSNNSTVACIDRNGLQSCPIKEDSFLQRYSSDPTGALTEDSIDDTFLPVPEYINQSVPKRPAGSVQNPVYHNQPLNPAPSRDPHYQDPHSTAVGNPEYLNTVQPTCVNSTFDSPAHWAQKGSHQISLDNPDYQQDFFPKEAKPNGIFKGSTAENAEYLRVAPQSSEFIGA
SMILES,IC50 [2],"IC50 [1, 10]",IC50 [3],other results
"N#C/C(=C\c1cc(Cl)cc(Cl)c1)c1cccnc1 [Example 1A, trans-2-(3-Pyridyl)-3-(3,5-dichlorophenyl)-2-propenenitrile]",–,–,–,"IC50 [1, 9]: 2000 nM; Relative inhibition of EGF receptor kinase, in words [1]: more potent inhibitor of EGF receptor kinase than C-1; Relative inhibition of EGF receptor kinase, in words ([1]; listed as 1-A): much better activity than that of its corresponding N-oxide"
"COc1ccc(C=C(C#N)c2cn(S(=O)(=O)c3ccc([N+](=O)[O-])cc3)c3ccccc23)cc1OC [Example 6, 2-[1-(4-Nitrophenylsulfonyl)indol-3-yl]-3-(3,4-dimethoxyphenyl)-2-propenenitrile]",> 50000 nM,20000 nM,17 nM,inhibition at 1 µM [4]: 15%
"COc1ccc(C=C(C#N)c2c[nH]c3ccccc23)cc1OC [Example 5, 2-(3-Indolyl)-3-(3,4-dimethoxyphenyl)-2-propenenitrile]",10000 nM,400 nM,–,–
"N#C/C(=C\c1cc(Cl)cc(Cl)c1)c1ccc[n+]([O-])c1 [Example 2, trans-2-(3-pyridyl)-3-(3,5-dichlorophenyl)-2-propenenitrile, N-oxide]",20000 nM,100 nM,30 ± 17 nM,"IC50 [1, 9]: ≥ 50000 nM; IC50 [4]: 100 nM"
"N#CC(=Cc1ccc(Cl)cc1Cl)c1cccnc1 [Example C-1, 2-(3-pyridyl)-3-(2,4-dichlorophenyl)-2-propenenitrile, reference compound]",–,–,–,"IC50 [1, 9]: ≥ 50000 nM"
"COc1ccc(C=C(C#N)c2cccnc2)cc1OC [Example 7, 2-(3-Pyridyl)-3-(3,4-dimethoxyphenyl)-2-propenenitrile]",30000 nM,400 nM,–,–
O=c1c(O)c(-c2ccc(O)c(O)c2)oc2cc(O)cc(O)c12 [quercetin],–,–,–,"Competition with ATP; inhibition of other protein kinases, in words [5]: compete with ATP, inhibit other protein kinases"
"CC(C)(C)c1cc(C=C(C#N)c2ccccn2)cc(C(C)(C)C)c1 [Example 4, 2-(2-Pyridyl)-3-(3,5-di-tert-butylphenyl)-2-propenenitrile]",–,–,9 ± 2 nM,IC50 [4]: 500 nM
O=CN/C=C/c1cc(O)ccc1O [erbstatin],–,–,–,"Inhibition of EGF receptor autophosphorylation, in words [6]: inhibits the autophosphorylation of the EGF receptor; also recorded: Low concentrations of erbstatin are required to inhibit EGF receptor autophosphorylation; Concentrations required to inhibit cAMP-dependent protein kinase, in words [7]: much higher concentrations of erbstatin are required"
"COc1ccc(C=C(C#N)c2ccccn2)cc1OC [Example 3, 2-(2-Pyridyl)-3-(3,4-dimethoxyphenyl)-2-propenenitrile]",6000 nM,500 nM,14 ± 10 nM,inhibition at 1 µM [4]: 27 ± 5%
O=c1c(-c2ccc(O)cc2)coc2cc(O)cc(O)c12 [genistein],–,–,–,"Competition with ATP; inhibition of other protein kinases, in words [5]: compete with ATP, inhibit other protein kinases"
"Nc1ncnc2c1ncn2[C@@H]1O[C@H](COP(=O)(O)OP(=O)(O)OP(=O)(O)O)[C@@H](O)[C@H]1O [ATP, adenosine triphosphate]",–,–,–,Km [8]: 7.2 µM
